Measurements taken from PubChem BioAssay (NCI).
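GI50 is the concentration that inhibits growth by half. TGI: concentration producing complete growth inhibition.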

Key:
Assay in all cases: inhibition of tumour cell growth, NCI panel, 384-well format
786-0 renal = system: 786-0 renal
A549 NSCLC = system: A549 NSCLC
BT-549 breast = system: BT-549 breast
CCRF-CEM leukemia = system: CCRF-CEM leukemia
COLO 205 colon = system: COLO 205 colon
DU-145 prostate = system: DU-145 prostate
EKVX NSCLC = system: EKVX NSCLC
HCC-2998 colon = system: HCC-2998 colon
HCT-116 colon = system: HCT-116 colon
HCT-15 colon = system: HCT-15 colon
HL-60(TB) leukemia = system: HL-60(TB) leukemia
HOP-62 NSCLC = system: HOP-62 NSCLC
HOP-92 NSCLC = system: HOP-92 NSCLC
HS 578T breast = system: HS 578T breast
HT29 colon = system: HT29 colon
IGROV1 ovarian = system: IGROV1 ovarian
KM12 colon = system: KM12 colon
LOX IMVI melanoma = system: LOX IMVI melanoma
M14 melanoma = system: M14 melanoma
MALME-3M melanoma = system: MALME-3M melanoma
MCF7 breast = system: MCF7 breast
MDA-MB-231 breast = system: MDA-MB-231 breast
MDA-MB-435 melanoma = system: MDA-MB-435 melanoma
MDA-MB-468 breast = system: MDA-MB-468 breast
MOLT-4 leukemia = system: MOLT-4 leukemia
NCI-H226 lung = system: NCI-H226 lung
NCI-H23 lung = system: NCI-H23 lung
NCI-H322M lung = system: NCI-H322M lung
NCI-H460 NSCLC = system: NCI-H460 NSCLC
NCI-H522 lung = system: NCI-H522 lung
NCI/ADR-RES ovarian = system: NCI/ADR-RES ovarian
OVCAR-3 ovarian = system: OVCAR-3 ovarian
OVCAR-4 ovarian = system: OVCAR-4 ovarian
OVCAR-5 ovarian = system: OVCAR-5 ovarian
OVCAR-8 ovarian = system: OVCAR-8 ovarian
PC-3 prostate = system: PC-3 prostate
RPMI-8226 leukemia = system: RPMI-8226 leukemia
RXF 393 renal = system: RXF 393 renal
SF-268 CNS = system: SF-268 CNS
SF-295 CNS = system: SF-295 CNS
SF-539 CNS = system: SF-539 CNS
SK-MEL-5 melanoma = system: SK-MEL-5 melanoma
SK-OV-3 ovarian = system: SK-OV-3 ovarian
SN12C renal = system: SN12C renal
SNB-19 CNS = system: SNB-19 CNS
SNB-75 CNS = system: SNB-75 CNS
SR leukemia = system: SR leukemia
SW-620 colon = system: SW-620 colon
T-47D breast = system: T-47D breast
TK-10 renal = system: TK-10 renal
U251 glioblastoma = system: U251 glioblastoma
UO-31 renal = system: UO-31 renal

COc1ccc(-c2cc3c(C)nc(N)nc3n(C3CCC(OCCO)CC3)c2=O)cn1 (centres undefined)
GI50 (786-0 renal): 268 nM
TGI (786-0 renal): 1530 nM
GI50 (A549 NSCLC): 173 nM
TGI (A549 NSCLC): 1100 nM
GI50 (BT-549 breast): 114 nM
TGI (BT-549 breast): 630 nM
GI50 (CCRF-CEM leukemia): 59.7 nM
TGI (CCRF-CEM leukemia): 1150 nM
GI50 (COLO 205 colon): 126 nM
TGI (COLO 205 colon): 1350 nM
GI50 (DU-145 prostate): 188 nM
TGI (DU-145 prostate): 23800 nM
GI50 (EKVX NSCLC): 62.3 nM
TGI (EKVX NSCLC): 447 nM
GI50 (HCC-2998 colon): 222 nM
TGI (HCC-2998 colon): 1670 nM
GI50 (HCT-116 colon): 260 nM
TGI (HCT-116 colon): 10500 nM
GI50 (HCT-15 colon): 89.8 nM
TGI (HCT-15 colon): 12800 nM
GI50 (HL-60(TB) leukemia): 17.9 nM
TGI (HL-60(TB) leukemia): 191 nM
GI50 (HOP-62 NSCLC): 178 nM
TGI (HOP-62 NSCLC): 1500 nM
GI50 (HOP-92 NSCLC): 43.1 nM
TGI (HOP-92 NSCLC): 302 nM
GI50 (HS 578T breast): 42.9 nM
TGI (HS 578T breast): 235 nM
GI50 (HT29 colon): 228 nM
TGI (HT29 colon): 5150 nM
GI50 (IGROV1 ovarian): 24.1 nM
TGI (IGROV1 ovarian): 80.3 nM
GI50 (KM12 colon): 318 nM
TGI (KM12 colon): 33200 nM
GI50 (LOX IMVI melanoma): 222 nM
TGI (LOX IMVI melanoma): 1150 nM
GI50 (M14 melanoma): 97.8 nM
TGI (M14 melanoma): 4560 nM
GI50 (MALME-3M melanoma): 24.7 nM
TGI (MALME-3M melanoma): 143 nM
GI50 (MCF7 breast): 20.7 nM
TGI (MCF7 breast): 12700 nM
GI50 (MDA-MB-231 breast): 229 nM
TGI (MDA-MB-231 breast): 2370 nM
GI50 (MDA-MB-435 melanoma): 220 nM
TGI (MDA-MB-435 melanoma): 1610 nM
GI50 (MDA-MB-468 breast): 26.7 nM
TGI (MDA-MB-468 breast): 146 nM
GI50 (MOLT-4 leukemia): 31.8 nM
TGI (MOLT-4 leukemia): 160 nM
GI50 (NCI-H226 lung): 191 nM
TGI (NCI-H226 lung): 960 nM
GI50 (NCI-H23 lung): 132 nM
TGI (NCI-H23 lung): 5990 nM
GI50 (NCI-H322M lung): 149 nM
TGI (NCI-H322M lung): 13300 nM
GI50 (NCI-H460 NSCLC): 40.9 nM
TGI (NCI-H460 NSCLC): 11600 nM
GI50 (NCI-H522 lung): 71.6 nM
TGI (NCI-H522 lung): 1200 nM
GI50 (NCI/ADR-RES ovarian): 241 nM
TGI (NCI/ADR-RES ovarian): 2270 nM
GI50 (OVCAR-3 ovarian): 53 nM
TGI (OVCAR-3 ovarian): 318 nM
GI50 (OVCAR-4 ovarian): 90.2 nM
TGI (OVCAR-4 ovarian): 854 nM
GI50 (OVCAR-5 ovarian): 145 nM
TGI (OVCAR-5 ovarian): 1750 nM
GI50 (OVCAR-8 ovarian): 245 nM
TGI (OVCAR-8 ovarian): 6520 nM
GI50 (PC-3 prostate): 41.8 nM
TGI (PC-3 prostate): 434 nM
GI50 (RPMI-8226 leukemia): 28.7 nM
TGI (RPMI-8226 leukemia): 105 nM
GI50 (RXF 393 renal): 37 nM
TGI (RXF 393 renal): 199 nM
GI50 (SF-268 CNS): 231 nM
TGI (SF-268 CNS): 1730 nM
GI50 (SF-295 CNS): 45.5 nM
TGI (SF-295 CNS): 257 nM
GI50 (SF-539 CNS): 185 nM
TGI (SF-539 CNS): 1270 nM
GI50 (SK-MEL-5 melanoma): 88.2 nM
TGI (SK-MEL-5 melanoma): 261 nM
GI50 (SK-OV-3 ovarian): 80.5 nM
TGI (SK-OV-3 ovarian): 394 nM
GI50 (SN12C renal): 82.3 nM
TGI (SN12C renal): > 100000 nM
GI50 (SNB-19 CNS): 896 nM
TGI (SNB-19 CNS): 2260 nM
GI50 (SNB-75 CNS): 24 nM
TGI (SNB-75 CNS): 113 nM
GI50 (SR leukemia): 106 nM
TGI (SR leukemia): 304 nM
GI50 (SW-620 colon): 315 nM
TGI (SW-620 colon): > 100000 nM
GI50 (T-47D breast): 19.9 nM
TGI (T-47D breast): 84.6 nM
GI50 (TK-10 renal): 65.8 nM
TGI (TK-10 renal): 408 nM
GI50 (U251 glioblastoma): 490 nM
TGI (U251 glioblastoma): 1980 nM
GI50 (UO-31 renal): 56.2 nM
TGI (UO-31 renal): 856 nM
